Results reported in article PMC6222509, “Dibasic Derivatives of Phenylcarbamic Acid against Mycobacterial Strains: Old Drugs and New Tricks?” (Molecules : A Journal of Synthetic Chemistry and Natural …, 2018).
In brackets after ≈: the same amount, converted by molar mass. Where two headings read alike, the source gives them in different places.

Tests used:
[1] = electronic properties, UV/Vis spectrophotometry of methanolic solutions; assay type: physicochemical; conditions: methanolic solution c = 8.0 × 10^−5 M; for log ε2 (Ch-T): charge-transfer maximum λ2 (Ch-T) = 236–238 nm; for log ε1: λ1 = 208–210 nm; for log ε3: λ3 = 278–280 nm
Excerpt: Electronic properties of the molecules 1a–p (Table 1) were characterized by logarithms of molar absorption coefficients (log ε) of their methanolic solutions (c = 8.0 × 10^−5 M) investigated in the UV/Vis region of an electromagnetic spectrum.
Positions of these absorption bands in the spectrum were typical for derivatives of (substituted) phenylcarbamic acid and the bands were assigned as first local excitation (λ3), charge-transfer (λ2 (Ch-T)) and second local excitation (λ1) absorption maxima, respectively. The λ1 and λ2 (Ch-T) maxima of 2-alkoxy substituted compounds 1a–d and 1i–l were slightly lower compared to those of their 3-alkoxy substituted positional isomers 1e–h and 1m–p (Table 1), respectively.
The UV/Vis spectra of methanolic solutions of analyzed compounds 1a–p (c = 8.0 × 10^−5 M) were observed on the 8452A Diode Array spectrophotometer HP-8452A (Hewlett-Packard, Palo Alto, CA, USA) at 21 °C. Methanol for UV-spectroscopy (Merck, Darmstadt, Germany) was used for preparation of these solutions. Results of the UV/Vis analyses were collected and stored digitally using the ChemStation controller software (Agilent Technologies, Waldbronn, Germany). The HP-8452A apparatus measured a complete range of compounds’ spectrum from 190 nm to 820 nm.
The log ε values for presently observed absorption maxima were calculated following the Lambert-Beer’s law, which was discussed in [35], for example, and expressed by Equation (16):A = ε × c × l(16) where the A parameter represented absorbance of a compound’s solution, the ε descriptor was a molar absorption coefficient (in L/mol/cm units) and l was path length (in cm units).

[2] = system: M. avium CNCTC My 330/80 (identical with ATCC 25291; MA 330/80); assay: in vitro antimycobacterial MIC, dilution micromethod in Šula's semisynthetic medium; assay type: cell-based, Mycobacterium avium; conditions: Mycobacterium avium
[3] = system: M. tuberculosis H37Ra ATCC 25177 (MTa H37Ra); assay: in vitro antimycobacterial MIC, 96-well Middlebrook broth, alamarBlue; assay type: cell-based, Mycobacterium tuberculosis; conditions: Mycobacterium tuberculosis, 168 h, 7-day cultivation; read-out: MIC MTa H37Ra 7-d
Experimental: In vitro susceptibitity of given mycobacteria to reference drugs isoniazid (INH), ethambutol (EMB), ofloxacin (OFLX) or ciprofloxacin (CPX) was tested as well (Table 6 and Table 7).
A value of a minimum inhibitory concentration (MIC) was the lowest concentration of a tested compound, (i) which inhibited growth of MTv H37Rv, MK 235/80, MK 6509/96 and MA 330/80, respectively; (ii) at which no visible growth of MTa H37Ra, MS, MK DSM as well as MM was observed.
The molecules 1a–p were also in vitro screened against an avirulent M. tuberculosis H37Ra ATCC 25177 (MTa H37Ra), M. kansasii DSM 44162 (MK DSM), M. smegmatis ATCC 700084 (MS) and M. marinum CAMP 5644 (MM), respectively, in the Department of Infectious Diseases and Microbiology (Faculty of Veterinary Medicine, University of Veterinary and Pharmaceutical Sciences in Brno, Czech Republic).
Determination of a minimum inhibitory concentration (MIC) against MTa H37Ra. The mycobacterium was grown on Middlebrook broth (MB; MiddleBrook Pharmaceuticals, Inc., Westlake, TX, USA), supplemented with Oleic-Albumin-Dextrose-Catalase (OADC) supplement (Difco, Lawrence, KS, USA) and salicylate-derived mycobactin J (2 μg/mL; Allied Monitor Inc., Fayette, MO, USA), an iron-binding siderophore.
At log phase growth, a culture sample (10 mL) was centrifuged at 15,000 rpm/20 min using a bench top centrifuge MPW-65R (MPW Med Instruments, Warsaw, Poland). Following removal of the supernatant, a pellet was washed in fresh liquid Middlebrook 7H9GC broth (MiddleBrook Pharmaceuticals, Inc.) and re-suspended in a fresh OADC-supplemented MB (10 mL).
Turbidity was adjusted to match the McFarland standard No. 1 [87] containing approximately 3 × 10^8 Colony Forming Units (CFU) with MB broth. Further 1:20 dilution of the culture was performed in MB broth.
Susceptibility of MTa H37Ra was investigated in a 96-well plate format. In the experiments, sterile deionized water (300 µL) was added to all outer-perimeter wells of the plates to minimize evaporation of the medium in test wells during incubation. Each evaluated compound (100 µL) was incubated with MTa H37Ra (100 µL). Dilutions of each compound were prepared in triplicate and final concentrations varied from 1000 μg/mL to 8 μg/mL. All tested molecules were dissolved in DMSO (Sigma-Aldrich, Irvine, UK), and subsequent dilutions were made in supplemented MB broth. The plates were sealed with parafilm and incubated at 37 °C for 7 days.
Following incubation, 10% addition a water-soluble dye, the alamarBlue reagent (AbD Serotec, Kidlington, UK) was mixed into each well. This resaurin-based reagent served as an oxidation-reduction indicator of metabolic function and cellular health in cell viability bioassays.
Absorbance readings at 570 nm and 600 nm were taken, initially for background subtraction and after 24h re-incubation. The subtraction is necessary for strongly colored compounds, where the color may interfere with the interpretation of any color change. For non-interfering compounds, a blue color in a well was interpreted as absence of growth and pink color was scored as growth.
The minimum inhibitory concentration (MIC) was defined as the lowest concentration of a compound, at which no visible bacterial growth was observed. In other words, the MIC was the lowest concentration that prevented visual color change from blue to pink.

[4] = system: Mycobacterium tuberculosis CNCTC My 331/88 (identical with H37Rv and ATCC 2794; MTv H37Rv); assay: in vitro antimycobacterial MIC, dilution micromethod in Šula's semisynthetic medium; assay type: cell-based; conditions: Mycobacterium tuberculosis
[5] = surface tension, drop count method, Traube stalagmometer; assay type: physicochemical; conditions: aqueous solution c = 2.0 × 10^−3 M, 21 °C; water γ = 0.07259 N/m
Experimental: Surface tension (relative surface activity; γ) of aqueous solutions of the compounds 1a–p (c = 2.0 × 10^−3 M) was determined by a drop count technique using a Traube stalagmometer. All evaluated substances were able to decrease surface tension of water (γ = 0.07259 N/m) at 21 °C.
Surface tension (relative surface activity; γ) of the derivatives 1a–p was determined by a drop count method using a glassy Traube stalagmometer (Kavalier Glass, Prague, Czech Republic). Number of drops of compounds’ and reference solutions were counted between upper and lower marks of the stalagmometer. Aqueous solutions of the molecules 1a–p were prepared with distilled, deionized water (c = 2.0 × 10^−3 M). […] The drops were allowed to form at constant temperature 21 °C. The experimental procedure was described in a paper. Current measurements were done in six replicates and average γ values (in N/m units) were reported (Table 1).

[6] = ATCC25291, 336 h, read-out: MIC MA 330/80 14-d
[7] = ATCC25291, 504 h, read-out: MIC MA 330/80 21-d
[8] = 336 h, 14-day cultivation, read-out: MIC MTv H37Rv 14-d
[9] = 504 h, 21-day cultivation, read-out: MIC MTv H37Rv 21-d
[10] = ATCC25291, 336 h, 14-day cultivation, read-out: MIC MA 330/80 14-d
[11] = ATCC25291, 504 h, 21-day cultivation, read-out: MIC MA 330/80 21-d

| SMILES | log ε2 (Ch-T) [1] | log ε1 [1] | log ε3 [1] | MIC [2, 6] | MIC [2, 7] | MIC [3] | MIC [4, 8] | MIC [4, 9] | surface tension γ (relative surface activity) [5] | MIC [2, 10] | MIC [2, 11] |
| --- | --- | --- | --- | --- | --- | --- | --- | --- | --- | --- | --- |
| CCCCCCCOc1ccccc1NC(=O)OC(CN(CCC)CCC)CN1CCCC1.Cl.Cl (stereo not drawn) [1d, 1-[2-[({[2-(heptyl-oxy)phenyl]amino}carbonyl)oxy]-3-(dipropylammonio)propyl]pyrrolidinium dichloride] | 4.08 | 4.43 | 3.55 | 32 µM | 32 µM | 12.5 µM | 8 µM | 8 µM | 0.05985 N/m | – | – |
| CCCCCOc1cccc(NC(=O)OC(CN(CCC)CCC)CN2CCCC2)c1.Cl.Cl (stereo not drawn) [1f, 1-[2-[({[3-(pentyloxy)phenyl]amino}carbonyl)oxy]-3-(dipropylammonio)propyl]-pyrrolidinium dichloride] | 4.27 | 4.55 | 3.62 | 32 µM | 32 µM | < 3.9 µM | 16 µM | 16 µM | 0.06285 N/m | – | – |
| CCCCCCOc1ccccc1NC(=O)OC(CN(CCC)CCC)CN1CCCCCC1 (stereo not drawn) [1k] | 4.10 | 4.42 | 3.57 | – | – | 195 µM (≈ 92.8 µg/mL) | 8 µM (≈ 3.81 µg/mL) | 16 µM (≈ 7.61 µg/mL) | 0.06065 N/m | 32 µM (≈ 15.2 µg/mL) | 62.5 µM (≈ 29.7 µg/mL) |
| CCCCCOc1ccccc1NC(=O)OC(CN(CCC)CCC)CN1CCCCCC1.O=C(O)C(=O)O (stereo not drawn) [1j, 1-[2-[({[2-(Pentyloxy)phenyl]amino}carbonyl)oxy]-3-(dipropylammonio)propyl]-azepanium oxalate] | 4.22 | 4.54 | 3.71 | 62.5 µM | 125 µM | 199 µM | 16 µM | 32 µM | 0.06206 N/m | – | – |
| CCCCOc1cccc(NC(=O)OC(CN(CCC)CCC)CN2CCCCCC2)c1 (stereo not drawn) [1m] | 4.09 | 4.52 | 3.44 | – | – | 15.4 µM (≈ 6.89 µg/mL) | 8 µM (≈ 3.58 µg/mL) | 16 µM (≈ 7.16 µg/mL) | 0.06298 N/m | 16 µM (≈ 7.16 µg/mL) | 32 µM (≈ 14.3 µg/mL) |
